The text below walks through data of patent US11161831B2, “Methods and compositions for treatment of muscle wasting, muscle weakness, and/or cachexia” (Baylor College of Medicine, priority 2013, dated 2021).

Data set [1] has as its system mice. Kind of data set: Maximum tolerated dose in mice. In kind it is in vivo, mouse. The settings on record: over 14 days, Tweardy et al, unpublished data. The text has this:
Presently, there are no clinically available drugs that directly target Stat3. Small molecule, drug development programs are initiated that target either the Stat3 homodimer interface or the Stat3 SH2 domain; the latter is required for Stat3 binding to phosphotyrosylpeptide ligands located within activated receptor complexes and within the Stat3 homodimer itself. Three candidate compounds (C3, C30 and C188) were identified; some identified single compounds including static (Schust et al., 2006), STA-21 (Song et al., 2005), S31-201 (Siddiquee et al., 2007) or LLL12 (Lin et al., 2010). Regarding LLL12, the evidence for direct inhibition of Stat3 vs. an upstream kinase was not presented. […] Regarding potency, neither the parent compounds identified by others nor derivatives of them are as potent as C188-9 (Bhasin et al., 2008; Zhang et al., 2010). In addition, compounds identified by others that have been tested in mice are not as well tolerated as C188-9 (Lin et al., 2009; Zhang et al., 2010); those compounds have a maximum tolerated dose of 5 mg/kg every 2 or 3 days compared to 100 mg/kg/day over 14 days for C188-9 (Tweardy et al, unpublished data). Thus, C188-9 has promise as a lead for development into a drug that could be administered safely to patients.

Data set [2] concerns C2Cl2 myotubes. Kind of data set: C2Cl2 myotubes treated with IL-6. In kind it is cell-based, mouse. The method, then: FIG. 22A. Representative western blots from C2Cl2 myotubes treated with IL-6 (100 ng/ml) for different times (left panel). Fold-changes in the densities of proteins corrected for GAPDH at different times calculated from values at time zero (right panel), n=3 repeats; *p<0.05 vs. time zero. FIG. 22B. C2Cl2 myotubes were infected with a lentivirus expressing constitutively active Stat3 (Stat3C-GFP). A representative western blot for the indicated proteins is shown. FIG. 22C. C2Cl2 myotubes were treated with or without C188-9 for 2 h before adding IL-6 (100 ng/ml) for 24 h. A representative western blot for the indicated proteins is shown. FIG. 22D. C2Cl2 myoblasts were co-transfected with a plasmid expressing C/EBPδ promoter-driven luciferase, Renila plus a lentivirus expressing Stat3C-GFP and treated with or without IL-6. Dual luciferase activity was measured (n=3 repeats; *p<0.05 vs respective GFP control). FIG. 22E. C2Cl2 myoblasts were transfected with control siRNA or C/EBPδ siRNA and after differentiation to myotubes were treated with or without IL-6. Representative western blots of Stat3, C/EBPδ and myostatin are shown. FIG. 22F. C2Cl2 myoblasts were co-transfected with a plasmid expressing the myostatin promoter-driven luciferase plus plasmids (cDNA3 control, Stat3C, C/EBPδ, C/EBPδ siRNA or Stat3C plus C/EBPδ siRNA) and treated with or without IL6. Luciferase activity was measured (n=3 repeats; *p<0.05 vs. cDNA3 CTRL). FIG. 22G. C2Cl2 myoblasts were transfected with lentivirus expressing a siRNA to myostatin. […] In these cells, protein degradation (upper panel; n=6 repeats, #p<0.05 vs GFP control, *p<0.05 vs siRNA CTRL) was measured.
C2Cl2 myotubes were treated with or without C188-9 for 1 or 24 h and RT-PCR was used to assess mRNA levels. […]
C2Cl2 myotubes were treated with C188-9, a Stat3 inhibitor, for 2 h before adding IL-6 (100 ng/ml) for 24 h. Myotube sizes were measured (mean±SEM; n=3 independent experiments; *, p<0.05 vs. untreated myotubes).
C2Cl2 myoblasts (ATCC, Manassas, Va.) were grown in high glucose Dulbecco's Modified Eagle's Medium (DMEM) supplemented with 10% FBS, 100 U/ml penicillin, […], […] sodium pyruvate and 2 mM L-glutamine. […] Myotube sizes were evaluated by NIS-element software. […] Alternatively, 2 μg plasmids expressing Stat3C or C/EBPδ or C/EBPδ promoter- or myostatin promoter-reporter luciferase construct were trasfected (control, Renilla) and luciferase activities was measured using the Promega assay (Madison, Wis.).
Muscle samples (1 mg per 10 μl of RIPA buffer) or C2Cl2 myotubes were homogenized in RIPA buffer containing Complete Mini Protease Inhibitor and PhosStop Phosphatase Inhibitor (Roche Applied Science, Indianapolis, Ind.). […] The band density of target proteins was quantified using NIH ImageJ Software.

The mark [3] stands for this setting: C188-9 2 h before IL-6 100 ng/ml for 24 h.

In data set [1], `COc1ccc(S(=O)(=O)Nc2cc(-c3c(O)ccc4ccccc34)c(O)c3ccccc23)cc1` [C188-9] showed a maximum tolerated dose of 100 mg/kg/day. In addition, in data set [2] (setting [3]), the “IL-6-induced increase in p-Stat3, C/EBPδ and myostatin” value is listed as “blocked these responses”; the “decrease in myotubes size induced by IL-6” value is “prevented the decrease”. Moreover, in data set [2] (IL-6-treated C2Cl2 myotubes), the “C/EBPδ and myostatin mRNAs” value is recorded as “suppressed”; the p-Akt entry is “increased p-Akt”.
